“And” between values parts separate entries of the source, which are not always exact repeats. Equal values may be shown once. Non-standard residues stand in square brackets, D forms with d. Residues, ends and D or L forms follow the SMILES beside them. *: point of attachment. X1 = CC(C)CCC[C@@H](C)[C@H]1CC[C@H]2[C@@H]3CC=C4C[C@@H](OC(=O)C*)CC[C@]4(C)[C@H]3CC[C@]12C; Palmitoyl = CCCCCCCCCCCCCCCC(=O)*; PEG4 = NCCOCCOCCOCCOCCC(=O)O
Assays:
[1] = target: SARS-CoV-2 S protein (Severe acute respiratory syndrome coronavirus 2, UniProt P0DTC2); test: cell-based; type: cell-based
[2] = system: SARS-CoV-2 PsV; details: PsV, 72 h
[3] = target: SARS-CoV S protein (Severe acute respiratory syndrome coronavirus, UniProt P59594); test: cell-based; type: cell-based
[4] = target: MERS-CoV S protein (Middle East respiratory syndrome-related coronavirus, UniProt K9N5Q8); test: cell-based; type: cell-based
[5] = target: HCoV-OC43 S protein (Human coronavirus OC43, UniProt P36334); test: cell-based; type: cell-based
[6] = target: HCoV-229E S protein (Human coronavirus 229E, UniProt P15423); test: cell-based; type: cell-based
[7] = target: HCoV-NL63 S protein (Human coronavirus NL63, UniProt Q6Q1S2); test: cell-based; type: cell-based
[8] = system: WIV1 S protein; type: cell-based, SL-CoV WIV1
[9] = system: Rs3367 S protein; type: cell-based, SL-CoV Rs3367
[10] = system: SHC014 S protein; type: cell-based, SL-CoV RsSHC014
[11] = system: SARS-CoV PsV; details: 72 h
[12] = system: MERS-CoV PsV; details: 72 h
[13] = system: HCoV-OC43 PsV; details: 72 h
[14] = system: HCoV-229E PsV; details: 72 h
[15] = system: HCoV-NL63 PsV; details: 72 h
[16] = system: WIV1 PsV; details: 72 h
[17] = system: Rs3367 PsV; details: 72 h
[18] = system: live SARS-CoV-2; details: live, 72 h
[19] = system: live MERS-CoV; details: 72 h
[20] = system: live HCoV-OC43; details: 1 h
[21] = system: live HCoV-229E; details: 1 h
[22] = system: live HCoV-NL63; details: 1 h

Chain of HCoV-229E S protein (P15423 16-1173 limits assumed): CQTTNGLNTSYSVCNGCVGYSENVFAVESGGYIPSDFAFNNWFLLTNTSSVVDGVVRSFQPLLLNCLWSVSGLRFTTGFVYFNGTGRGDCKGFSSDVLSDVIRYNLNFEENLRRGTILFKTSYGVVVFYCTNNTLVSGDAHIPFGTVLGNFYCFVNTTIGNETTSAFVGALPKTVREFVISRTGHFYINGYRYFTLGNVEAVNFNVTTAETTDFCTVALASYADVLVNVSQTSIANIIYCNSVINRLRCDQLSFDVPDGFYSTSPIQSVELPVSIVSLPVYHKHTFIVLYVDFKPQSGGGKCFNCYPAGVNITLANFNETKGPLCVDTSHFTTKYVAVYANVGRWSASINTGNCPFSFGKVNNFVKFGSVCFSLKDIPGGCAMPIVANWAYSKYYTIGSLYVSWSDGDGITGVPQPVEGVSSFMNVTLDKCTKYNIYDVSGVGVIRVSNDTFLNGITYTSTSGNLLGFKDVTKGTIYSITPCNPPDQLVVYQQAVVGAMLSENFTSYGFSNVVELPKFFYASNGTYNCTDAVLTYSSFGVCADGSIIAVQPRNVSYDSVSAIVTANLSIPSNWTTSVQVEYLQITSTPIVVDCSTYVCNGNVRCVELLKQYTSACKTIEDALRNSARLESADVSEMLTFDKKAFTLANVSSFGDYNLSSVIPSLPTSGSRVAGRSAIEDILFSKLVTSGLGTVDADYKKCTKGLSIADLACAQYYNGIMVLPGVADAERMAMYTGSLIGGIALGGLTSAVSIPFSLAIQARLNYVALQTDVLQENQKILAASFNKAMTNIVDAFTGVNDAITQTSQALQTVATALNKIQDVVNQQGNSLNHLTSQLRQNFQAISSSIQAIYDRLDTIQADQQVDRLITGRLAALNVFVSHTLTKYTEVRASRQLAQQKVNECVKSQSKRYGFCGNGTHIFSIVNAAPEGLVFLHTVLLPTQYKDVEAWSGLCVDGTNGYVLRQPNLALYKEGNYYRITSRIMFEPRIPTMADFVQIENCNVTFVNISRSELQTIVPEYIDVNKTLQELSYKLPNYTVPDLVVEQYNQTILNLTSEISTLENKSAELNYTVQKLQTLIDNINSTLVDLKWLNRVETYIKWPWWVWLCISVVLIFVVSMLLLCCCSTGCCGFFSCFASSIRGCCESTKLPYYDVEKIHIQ
Chain of HCoV-NL63 S protein (Q6Q1S2 19-1356 limits assumed): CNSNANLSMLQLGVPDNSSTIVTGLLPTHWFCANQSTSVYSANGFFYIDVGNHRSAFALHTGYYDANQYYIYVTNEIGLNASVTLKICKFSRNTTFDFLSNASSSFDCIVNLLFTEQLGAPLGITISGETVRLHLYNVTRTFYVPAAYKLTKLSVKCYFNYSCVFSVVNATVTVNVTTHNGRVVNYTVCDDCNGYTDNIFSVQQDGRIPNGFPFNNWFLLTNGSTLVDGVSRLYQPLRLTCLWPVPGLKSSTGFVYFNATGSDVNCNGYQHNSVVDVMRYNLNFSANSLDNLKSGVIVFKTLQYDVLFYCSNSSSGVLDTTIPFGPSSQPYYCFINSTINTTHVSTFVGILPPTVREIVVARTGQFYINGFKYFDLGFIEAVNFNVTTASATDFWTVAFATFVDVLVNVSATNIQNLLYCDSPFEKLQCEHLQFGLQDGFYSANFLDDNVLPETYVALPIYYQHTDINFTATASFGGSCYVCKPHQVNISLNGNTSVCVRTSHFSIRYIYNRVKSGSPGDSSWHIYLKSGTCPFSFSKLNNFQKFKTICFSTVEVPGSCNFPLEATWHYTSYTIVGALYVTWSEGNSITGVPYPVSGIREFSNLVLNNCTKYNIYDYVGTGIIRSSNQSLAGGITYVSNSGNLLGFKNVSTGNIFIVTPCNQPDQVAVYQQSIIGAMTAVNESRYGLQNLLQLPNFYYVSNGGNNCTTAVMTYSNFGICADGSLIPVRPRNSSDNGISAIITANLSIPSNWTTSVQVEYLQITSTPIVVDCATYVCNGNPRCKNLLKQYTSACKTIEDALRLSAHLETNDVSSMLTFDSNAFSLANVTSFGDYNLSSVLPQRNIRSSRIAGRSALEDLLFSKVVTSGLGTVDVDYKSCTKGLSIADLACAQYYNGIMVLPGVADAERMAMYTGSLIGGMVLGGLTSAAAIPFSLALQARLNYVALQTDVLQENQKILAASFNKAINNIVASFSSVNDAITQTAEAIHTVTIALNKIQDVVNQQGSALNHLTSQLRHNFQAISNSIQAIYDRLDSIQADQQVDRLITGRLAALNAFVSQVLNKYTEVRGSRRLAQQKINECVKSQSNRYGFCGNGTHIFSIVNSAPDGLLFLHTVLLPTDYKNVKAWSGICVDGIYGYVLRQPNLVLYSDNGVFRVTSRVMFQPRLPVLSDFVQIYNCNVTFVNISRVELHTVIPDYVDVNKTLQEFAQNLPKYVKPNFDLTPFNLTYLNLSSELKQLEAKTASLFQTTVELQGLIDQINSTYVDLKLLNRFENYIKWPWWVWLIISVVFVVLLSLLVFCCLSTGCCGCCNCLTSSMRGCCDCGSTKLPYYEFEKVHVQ
Chain of MERS-CoV S protein (K9N5Q8 18-1353 limits assumed): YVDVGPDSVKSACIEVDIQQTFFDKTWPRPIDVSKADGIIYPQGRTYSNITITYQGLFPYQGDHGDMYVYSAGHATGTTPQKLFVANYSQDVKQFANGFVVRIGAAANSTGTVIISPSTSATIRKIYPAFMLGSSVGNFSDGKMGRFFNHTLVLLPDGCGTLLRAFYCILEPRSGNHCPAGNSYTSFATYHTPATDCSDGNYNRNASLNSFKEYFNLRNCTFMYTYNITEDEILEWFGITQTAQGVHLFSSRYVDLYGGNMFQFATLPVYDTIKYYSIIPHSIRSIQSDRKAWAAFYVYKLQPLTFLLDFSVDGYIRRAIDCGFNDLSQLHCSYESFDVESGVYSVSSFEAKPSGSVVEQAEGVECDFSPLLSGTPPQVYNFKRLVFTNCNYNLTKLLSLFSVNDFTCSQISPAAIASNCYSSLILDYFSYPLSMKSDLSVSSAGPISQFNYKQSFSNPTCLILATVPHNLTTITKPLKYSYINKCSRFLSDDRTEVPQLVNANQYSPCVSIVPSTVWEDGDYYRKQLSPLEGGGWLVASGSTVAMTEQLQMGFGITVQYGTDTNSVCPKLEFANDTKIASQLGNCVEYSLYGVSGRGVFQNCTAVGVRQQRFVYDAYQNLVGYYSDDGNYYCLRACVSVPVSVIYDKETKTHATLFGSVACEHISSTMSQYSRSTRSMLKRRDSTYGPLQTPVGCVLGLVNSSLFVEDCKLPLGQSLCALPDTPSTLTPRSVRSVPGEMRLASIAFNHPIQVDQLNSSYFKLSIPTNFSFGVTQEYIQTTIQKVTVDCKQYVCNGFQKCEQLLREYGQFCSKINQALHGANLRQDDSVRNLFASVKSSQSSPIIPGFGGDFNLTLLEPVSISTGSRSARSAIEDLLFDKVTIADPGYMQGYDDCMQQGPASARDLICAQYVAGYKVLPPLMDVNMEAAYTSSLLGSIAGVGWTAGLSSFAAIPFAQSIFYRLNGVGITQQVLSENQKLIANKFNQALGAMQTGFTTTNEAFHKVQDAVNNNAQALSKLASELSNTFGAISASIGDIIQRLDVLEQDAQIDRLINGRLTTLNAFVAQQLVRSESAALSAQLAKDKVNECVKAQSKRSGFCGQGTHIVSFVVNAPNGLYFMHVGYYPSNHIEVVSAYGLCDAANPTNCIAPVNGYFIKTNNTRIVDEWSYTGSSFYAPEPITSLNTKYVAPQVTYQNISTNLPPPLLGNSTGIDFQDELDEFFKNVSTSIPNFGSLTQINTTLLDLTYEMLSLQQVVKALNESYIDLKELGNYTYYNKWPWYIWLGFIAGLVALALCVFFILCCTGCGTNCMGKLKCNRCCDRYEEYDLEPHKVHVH

## CCCCCCCCCCCCCCCC(=O)SC[C@H](NC(=O)CCOCCOCCOCCOCCNC(=O)[C@H](CC(C)C)NC(=O)[C@H](CCC(=O)O)NC(=O)[C@H](CCCCN)NC(=O)[C@H](CC(C)C)NC(=O)[C@H](CC(=O)O)NC(=O)[C@@H](NC(=O)[C@H](Cc1ccc(O)cc1)NC(=O)[C@H](CO)NC(=O)[C@H](CCC(=O)O)NC(=O)[C@H](CCC(=O)O)NC(=O)[C@H](CC(C)C)NC(=O)[C@H](CCCCN)NC(=O)[C@H](CCCCN)NC(=O)[C@@H](NC(=O)[C@H](C)NC(=O)[C@H](CCC(=O)O)NC(=O)[C@H](CCC(=O)O)NC(=O)[C@H](CC(C)C)NC(=O)[C@H](CCCCN)NC(=O)[C@H](CCCCN)NC(=O)[C@H](CCSC)NC(=O)[C@H](CCC(=O)O)NC(=O)[C@H](Cc1ccc(O)cc1)NC(=O)[C@H](CCC(=O)O)NC(=O)[C@H](CC(C)C)NC(=O)[C@H](CC(=O)O)NC(=O)[C@H](CC(C)C)NC(=O)[C@H](Cc1ccccc1)NC(=O)[C@@H](NC(=O)[C@@H](NC(=O)[C@H](CC(N)=O)NC(=O)[C@@H](NC(=O)[C@H](CCC(N)=O)NC(=O)[C@H](CC(=O)O)NC(=O)[C@H](CC(C)C)NC(=O)[C@@H](N)CO)[C@@H](C)CC)C(C)C)[C@@H](C)O)[C@@H](C)CC)[C@@H](C)CC)C(N)=O [EK1P] (H-SLDQINVTFLDLEYEMKKLEEAIKKLEESYIDLKEL[PEG4]C(Palmitoyl)-NH2)
[1]
  Inhibition of SARS-CoV-2 mediated cell–cell fusion at 2.5 μM: completely inhibit

## CC[C@H](C)[C@H](NC(=O)[C@H](C)NC(=O)[C@H](CCC(=O)O)NC(=O)[C@H](CCC(=O)O)NC(=O)[C@H](CC(C)C)NC(=O)[C@H](CCCCN)NC(=O)[C@H](CCCCN)NC(=O)[C@H](CCSC)NC(=O)[C@H](CCC(=O)O)NC(=O)[C@H](Cc1ccc(O)cc1)NC(=O)[C@H](CCC(=O)O)NC(=O)[C@H](CC(C)C)NC(=O)[C@H](CC(=O)O)NC(=O)[C@H](CC(C)C)NC(=O)[C@H](Cc1ccccc1)NC(=O)[C@@H](NC(=O)[C@@H](NC(=O)[C@H](CC(N)=O)NC(=O)[C@@H](NC(=O)[C@H](CCC(N)=O)NC(=O)[C@H](CC(=O)O)NC(=O)[C@H](CC(C)C)NC(=O)[C@@H](N)CO)[C@@H](C)CC)C(C)C)[C@@H](C)O)C(=O)N[C@@H](CCCCN)C(=O)N[C@@H](CCCCN)C(=O)N[C@@H](CC(C)C)C(=O)N[C@@H](CCC(=O)O)C(=O)N[C@@H](CCC(=O)O)C(=O)N[C@@H](CO)C(=O)N[C@@H](Cc1ccc(O)cc1)C(=O)N[C@H](C(=O)N[C@@H](CC(=O)O)C(=O)N[C@@H](CC(C)C)C(=O)N[C@@H](CCCCN)C(=O)N[C@@H](CCC(=O)O)C(=O)N[C@@H](CC(C)C)C(=O)NCC(=O)N[C@@H](CO)C(=O)NCC(=O)NCCOCCOCCOCCOCCC(=O)N[C@@H](CSCC(=O)O[C@H]1CC[C@@]2(C)C(=CC[C@H]3[C@@H]4CC[C@H]([C@H](C)CCCC(C)C)[C@@]4(C)CC[C@@H]32)C1)C(N)=O)[C@@H](C)CC [EK1C3]
[1]
  Fold more potent than EK1C1, SARS-CoV-2 S-mediated cell–cell fusion: 4 fold
[2]
  IC50: 86.4 nM

## LKVLLYEEFKLLESLIMEILEYQKDSDIKENAEDTK [EK1-scrambled, reference compound]
[1]
  Inhibitory activity on SARS-CoV-2 S-mediated cell–cell fusion: no inhibitory activity
[3]
  Inhibitory activity on SARS-CoV S-mediated cell–cell fusion: no inhibitory activity
[4]
  Inhibitory activity on MERS-CoV S-mediated cell–cell fusion: no inhibitory activity
[5]
  Inhibitory activity on HCoV-OC43 S-mediated cell–cell fusion: no inhibitory activity
[6]
  Inhibitory activity on HCoV-229E S-mediated cell–cell fusion: no inhibitory activity
[7]
  Inhibitory activity on HCoV-NL63 S-mediated cell–cell fusion: no inhibitory activity
[8]
  Inhibitory activity on WIV1 S-mediated cell–cell fusion: no inhibitory activity
[9]
  Inhibitory activity on Rs3367 S-mediated cell–cell fusion: no inhibitory activity
[10]
  Inhibitory activity on SHC014 S-mediated cell–cell fusion: no inhibitory activity

## CC[C@H](C)[C@H](NC(=O)[C@H](C)NC(=O)[C@H](CCC(=O)O)NC(=O)[C@H](CCC(=O)O)NC(=O)[C@H](CC(C)C)NC(=O)[C@H](CCCCN)NC(=O)[C@H](CCCCN)NC(=O)[C@H](CCSC)NC(=O)[C@H](CCC(=O)O)NC(=O)[C@H](Cc1ccc(O)cc1)NC(=O)[C@H](CCC(=O)O)NC(=O)[C@H](CC(C)C)NC(=O)[C@H](CC(=O)O)NC(=O)[C@H](CC(C)C)NC(=O)[C@H](Cc1ccccc1)NC(=O)[C@@H](NC(=O)[C@@H](NC(=O)[C@H](CC(N)=O)NC(=O)[C@@H](NC(=O)[C@H](CCC(N)=O)NC(=O)[C@H](CC(=O)O)NC(=O)[C@H](CC(C)C)NC(=O)[C@@H](N)CO)[C@@H](C)CC)C(C)C)[C@@H](C)O)C(=O)N[C@@H](CCCCN)C(=O)N[C@@H](CCCCN)C(=O)N[C@@H](CC(C)C)C(=O)N[C@@H](CCC(=O)O)C(=O)N[C@@H](CCC(=O)O)C(=O)N[C@@H](CO)C(=O)N[C@@H](Cc1ccc(O)cc1)C(=O)N[C@H](C(=O)N[C@@H](CC(=O)O)C(=O)N[C@@H](CC(C)C)C(=O)N[C@@H](CCCCN)C(=O)N[C@@H](CCC(=O)O)C(=O)N[C@@H](CC(C)C)C(=O)NCCOCCOCCOCCOCCC(=O)N[C@@H](CSCC(=O)O[C@H]1CC[C@@]2(C)C(=CC[C@H]3[C@@H]4CC[C@H]([C@H](C)CCCC(C)C)[C@@]4(C)CC[C@@H]32)C1)C(N)=O)[C@@H](C)CC [EK1C] (H-SLDQINVTFLDLEYEMKKLEEAIKKLEESYIDLKEL[PEG4]C(X1)-NH2)
[1]
  Inhibition of SARS-CoV-2 mediated cell–cell fusion at 2.5 μM: completely inhibit
[2]
  IC50: 139 nM

## CC[C@H](C)[C@H](NC(=O)[C@H](C)NC(=O)[C@H](CCC(=O)O)NC(=O)[C@H](CCC(=O)O)NC(=O)[C@H](CC(C)C)NC(=O)[C@H](CCCCN)NC(=O)[C@H](CCCCN)NC(=O)[C@H](CCSC)NC(=O)[C@H](CCC(=O)O)NC(=O)[C@H](Cc1ccc(O)cc1)NC(=O)[C@H](CCC(=O)O)NC(=O)[C@H](CC(C)C)NC(=O)[C@H](CC(=O)O)NC(=O)[C@H](CC(C)C)NC(=O)[C@H](Cc1ccccc1)NC(=O)[C@@H](NC(=O)[C@@H](NC(=O)[C@H](CC(N)=O)NC(=O)[C@@H](NC(=O)[C@H](CCC(N)=O)NC(=O)[C@H](CC(=O)O)NC(=O)[C@H](CC(C)C)NC(=O)[C@@H](N)CO)[C@@H](C)CC)C(C)C)[C@@H](C)O)C(=O)N[C@@H](CCCCN)C(=O)N[C@@H](CCCCN)C(=O)N[C@@H](CC(C)C)C(=O)N[C@@H](CCC(=O)O)C(=O)N[C@@H](CCC(=O)O)C(=O)N[C@@H](CO)C(=O)N[C@@H](Cc1ccc(O)cc1)C(=O)N[C@H](C(=O)N[C@@H](CC(=O)O)C(=O)N[C@@H](CC(C)C)C(=O)N[C@@H](CCCCN)C(=O)N[C@@H](CCC(=O)O)C(=O)N[C@@H](CC(C)C)C(=O)O)[C@@H](C)CC [EK1]
[1]; IC50, SARS-CoV-2 S-mediated cell–cell fusion
  IC50: 287 nM and 315 nM
[3]
  IC50: 409 nM
[4]
  IC50: 239 nM
[5]
  IC50: 788 nM
[6]
  IC50: 207 nM
[7]
  IC50: 751 nM
[2]
  IC50: 2380 nM
[11]
  IC50: 3.24 µM
[12]
  IC50: 632 nM
[13]
  IC50: 1400 nM
[14]
  IC50: 3.96 µM
[15]
  IC50: 7.67 µM
[16]
  IC50: 5.42 µM
[17]
  IC50: 6.01 µM
[18]
  IC50: 2470 nM
[19]
  IC50: 802 nM
[20]
  IC50: 1550 nM
[21]
  IC50: 4.38 µM
[22]
  IC50: 3.69 µM

Source: publication PMC7104723 (Cell Research, 2020)
